Source: PMC6687188, “Novel lactate dehydrogenase inhibitors with in vivo efficacy against Cryptosporidium parvum” (PLoS Pathogens, 2019)
Where two headings read alike, the source gives them in different places. Residues, ends and D or L forms follow the SMILES beside them. *: point of attachment. CH2Cl = ClC*

Molecular target: recombinant CpLDH protein (Cryptosporidium parvum, UniProt Q9GT92, F198L/K295E/R251K)
[1] = 20 μM compound, 10 mM pyruvate, 1 mM NADH, values below 0 = augmenters

| Structure (SMILES) | MEAN CpLDH INHIBITION (%) | MEAN CpLDH INHIBITION (%) [1] [%] |
| --- | --- | --- |
| COC(=O)NC1C(C)OC(OC2C/C=C(/C)C3C=CC4C(OC5CC(OC6CC(O)C(OC7CC(O)C(OC)C(C)O7)C(C)O6)C(O)C(C)O5)C(C)CC(C)C4C3(C)/C(O)=C3\C(=O)OC4(CC(C)C(CO)=CC4/C=C\2C)C3=O)CC1(C)[N+](=O)[O-] (stereo not shown) [NSC363182] | -79.07 | – |
| Oc1cccc2cccnc12 [NSC285166] | – | -48.97 |
| COc1ccc(S(=O)(=O)N/N=C/C(=O)O)cc1 [NSC267213] | -67.55 | – |
| CC(C)(C)[Si](C)(C)OCC1CCC(n2cnc3c(N)ncnc32)O1 (stereo not shown) [NSC616355] | -24.91 | – |
| N#Cc1cn([C@@H]2O[C@H](CO)[C@@H](O)[C@H]2O)c2ncnc(N)c12 [NSC63701] | -0.31 | – |
| O=C1Nc2c(Cl)cc(Cl)cc2/C1=N/N=C/c1ccco1 [NSC329279] | -39.07 | – |
| CC1(O)C=CC(=O)C=C1 [NSC295156] | -1.00 | – |
| O=C(CC1(O)C(=O)Nc2c(Cl)ccc(Cl)c21)c1ccc(Cl)cc1 (stereo not shown) [NSC635437] | -7.08 | – |
| CO[C@H]1[C@@H](O)[C@@H](C)O[C@H](O[C@H]2[C@H](Oc3cccc4c(O)c5c(=O)oc6ccc(C)c7c(=O)oc(c34)c5c67)O[C@H](C)[C@H](O)[C@@H]2O)[C@@H]1O [NSC5159] | -38.07 | – |
| COc1ccc(/C(=N/O)C(c2ccc(OC)cc2)C2C(=O)Oc3ccccc32)cc1 (stereo not shown) [NSC641607] | -85.63 | – |
| O=C1C(Br)=C(Br)C(=O)c2ccccc21 [NSC618332] | -7.70 | – |
| Cc1ccc(CC2(OCCN(C)C)CCC(C(C)(C)C)CC2)cc1.O=C(O)/C=C/C(=O)O (stereo not shown) [NSC670225] | -54.38 | – |
| CS(=O)(=O)c1nc(N)nc2nc[nH]c12 [NSC63446] | -4.16 | – |
| N[C@H](C(=O)O)[C@H]1ON=C(Cl)[C@H]1O [NSC176324] | -9.23 | – |
| COC(=O)c1ccc(NCc2cc(O)ccc2O)cc1 [NSC654705] | -2.14 | – |
| CN(C)c1ccc(/C=C/C(=O)c2ccccc2)cc1Br [NSC643164] | -21.20 | – |
| CCCCCCCCCc1c(Cl)nc(Cl)nc1Cl [NSC92510] | -23.70 | – |
| CC(=O)O[C@@H]1[C@@H](O)[C@H](O[C@H]2[C@H](OC(=O)[C@H]3CC[C@H]4[C@@H](C3)O[C@@]3(C[C@H](OC(=O)/C=C/c5ccccc5)[C@H](C)CO3)[C@]43CO3)O[C@H](C)[C@@H](O)[C@@H]2OC(C)=O)O[C@H](C)[C@H]1O [NSC328426] | -30.81 | – |
| CN(C)CC1CCC/C(=C\c2ccc(OC(=O)/C=C/c3ccccc3)cc2)C1=O.Cl (stereo not shown) [NSC697443] | -57.12 | – |
| N[C@@H](CSC(c1ccccc1)(c1ccccc1)c1ccccc1)C(=O)O [NSC83265] | -6.04 | – |
| O=C1Nc2c(Cl)cc(Cl)cc2C1=O [NSC26045] | -41.99 | – |
| Cc1cc2nc(C=C(C(F)(F)F)C(F)(F)F)oc2cc1C [NSC168415] | -49.77 | – |
| CC(=O)O[C@H]1C[C@H](O[C@H]2[C@@H](O)C[C@H](O[C@H]3[C@@H](O)C[C@H](O[C@H]4CC[C@@]5(C)[C@H](CC[C@@H]6[C@@H]5CC[C@]5(C)[C@@H](C7=CC(=O)OC7)CC[C@]65O)C4)O[C@@H]3C)O[C@@H]2C)O[C@H](C)[C@H]1O[C@@H]1O[C@H](CO)[C@@H](O)[C@H](O)[C@H]1O [NSC7532] | -151.91 | – |
| CC1=CC(O)C(O)C2(C)C1CC1OC(=O)C(O)C3C(C)C(O)C4(O)OCC13C42 (stereo not shown) [NSC14974] | 0.167 | – |
| O=c1cc(O)ccn1[C@@H]1O[C@H](CO)[C@@H](O)[C@H]1O [NSC126849] | -22.36 | – |
| COC(=O)Nc1nc2ccc(Br)cc2[nH]1 [NSC154754] | -36.36 | – |

| Structure (SMILES) | MEAN CpLDH INHIBITION (%) | MEAN CpLDH INHIBITION (%) [1] [%] |
| --- | --- | --- |
| COc1ccc(N=C2C(=Nc3ccc(OC)cc3)N(c3ccc(N(C)C)cc3)C(=S)N2c2ccc(OC)cc2)cc1 [NSC671394] | -158.34 | – |
| C[C@H](CN(C)C)C(=O)c1ccccc1C(=O)O [NSC22992] | -3.61 | – |
| O=C1c2ccccc2C(=O)c2sc(Nc3ccc(Cl)c(Cl)c3)nc21 [NSC631521] | -0.12 | – |
| Cc1nc2c(o1)C(=O)c1ccccc1C2=Nc1ccccc1 [NSC650573] | -21.28 | – |
| COc1cc2oc3cc(=O)cc4oc(-c5ccccc5)cc(c2c2c1CCC(c1ccccc1)O2)c43 (stereo not shown) [NSC376248] | -15.03 | – |
| C1COCCN1.S=C(S)N1CCOCC1 [NSC4114] | -42.22 | – |
| COc1cc(C(O)CCBr)c(OC)cc1C (stereo not shown) [NSC611750] | -11.25 | – |
| O=C1N[C@@H]2C(=C[C@H](O)[C@@H](O)[C@H]2O)c2cc3c(c(O)c21)OCO3 [NSC266535] | -18.25 | – |
| CC(C)(O)CCC(O)C(C)(O)C1CCC2(O)C3=CC(=O)C4(O)CC(O)C(O)CC4(C)C3CCC12C.CC(C)(O)CCC(O)C(C)(O)C1CCC2(O)C3=CC(=O)C4CC(O)C(O)CC4(C)C3CCC12C (stereo not shown) [NSC115493] | -100.16 | – |
| Cc1ccc(S(=O)(=O)c2ccc([N+](=O)[O-])o2)cc1 [NSC697923] | – | -17.27 |
| O=S1(=O)CCN(c2ccccc2CC(c2c[nH]c3ccccc23)c2c[nH]c3ccccc23)CC1 [NSC35949] | -34.03 | – |
| CC(C)(C)c1ccc(OC2CCO2)cc1 (stereo not shown) [NSC635975] | -52.75 | – |
| CC1(C)[C@@H]2CC[C@@]1(CS(=O)(=O)O)C(=O)C2.CN1[C@@H](c2ccccc2)CC(=NO)C[C@H]1c1ccccc1 [NSC363744] | -9.54 | – |
| CON(C)C(=O)C1CCCO1 (stereo not shown) [NSC695218] | -28.71 | – |
| Cc1ccc(NC(=O)C(=O)CC(=O)c2ccccc2)cc1C [NSC636126] | -16.52 | – |
| CC(=O)SC(SC(C)=O)SC(C)=O [NSC637833] | -64.71 | – |
| CC(=O)C1=C(O)C2(O)C(=O)c3c(c(C)c4ccc(C)c(O)c4c3O)CC2C(N)C1=O.CCCCCCCCCCCCOS(=O)(=O)O (stereo not shown) [NSC73495] | -99.50 | – |
| CC(C)[C@@H](C)/C=C/[C@@H](C)[C@H]1CC[C@H]2C3=CC=C4C[C@@H](O)CC[C@]4(C)[C@H]3CC[C@]12C [NSC62791] | -22.35 | – |
| Nc1ncnc2c1nnn2[C@@H]1O[C@H](CO)[C@@H](O)[C@H]1O [NSC72961] | -2.40 | – |
| N#Cc1ccccc1NC(=O)C(=O)C(C(=O)c1ccccc1F)C1OC(=O)c2ccccc21 (stereo not shown) [NSC640974] | -7.97 | – |
| CN1C(Cl)=NS(=O)(=O)c2ccccc21 [NSC373853] | -15.72 | – |
| C=C1C(=O)O[C@H]2/C=C(/C)C(=O)C[C@@H]3OC(C)(C)O[C@@]3(C)C[C@H](OC(=O)/C(C)=C\C)[C@H]12 [NSC329696] | -30.73 | – |
| Oc1ccc(-c2nc3ccccc3s2)cc1 [NSC33004] | -8.80 | – |
| [O-][S+]1c2ccccc2N=C(c2cccc3ccccc23)CC1c1cccc2ccccc12 (stereo not shown) [NSC634926] | -0.08 | – |
| CC12CC(Br)(Br)C(=O)C3C1CCCC32 [NSC624358] | -23.30 | – |
| CC(=O)C(N1CCCCC1)C(O)(C(F)(F)F)C(F)(F)F (stereo not shown) [NSC664327] | -14.71 | – |

| Structure (SMILES) | MEAN CpLDH INHIBITION (%) | MEAN CpLDH INHIBITION (%) [1] [%] |
| --- | --- | --- |
| Nc1ccccc1N [NSC5354] | 0 | – |
| Nc1nc(SCCc2ccccc2)c2[nH]cnc2n1 [NSC35866] | -7.39 | – |
| CC(/C=N/N=C(N)N)=N\N=C(N)N [NSC32946] | -50.60 | – |
| N#CCCN(c1ccc(C=O)cc1)S(=O)(=O)c1ccccc1 [NSC637914] | -47.07 | – |
| COc1ccc(OC)c(-c2cc(=O)c3c(OC)c(OC)c(OC)c(OC)c3o2)c1 [NSC71300] | -64.35 | – |
| CC1=C(N2CC2)C(=O)C(CO)=C(N2CC2)C1=O [NSC697726] | -69.94 | – |
| CN(C)CCOC1(Cc2ccc(F)cc2)CCC(C(C)(C)C)CC1.O=C(O)/C=C/C(=O)O (stereo not shown) [NSC670226] | -20.67 | – |
| Cc1ccc(C)c2c(N=Nc3ccccc3[N+](=O)[O-])c(O)[nH]c12 [NSC118732] | -7.91 | – |
| Nc1nc(SCc2ccccc2Cl)c2ncn(C3OC(CO)C(O)C3O)c2n1 (stereo not shown) [NSC40666] | -57.18 | – |
| Cc1ccc(NC(=O)c2cccc([N+](=O)[O-])c2O)c(C)c1 [NSC79456] | -17.92 | – |
| O=C(/C=C/c1c(O)ccc2ccccc12)c1cccc(O)c1 [NSC636786] | -25.27 | – |
| OCC1OC(n2cnc3c(SCc4ccccc4)ncnc32)C(O)C1O (stereo not shown) [NSC26273] | -4.046 | – |
| CC(=O)NC(CC(C)C)C(=O)NC(Cc1ccccc1)C(=O)CCl (stereo not drawn) [NSC173905] (Ac-Leu-Phe-CH2Cl; configuration not given here) | -39.37 | – |
| CCOC(OC1=C(C#N)CCC1)C(C)[Se]c1ccccc1 (stereo not shown) [NSC646189] | -21.95 | – |
| CCN(CC)CCCC(C)Nc1ccnc(/C=C/c2ccc(Cl)cc2)c1 (stereo not shown) [NSC157389] | -3.33 | – |
| O=C1/C(=C/c2ccc([N+](=O)[O-])cc2)Sc2scc(-c3cccc([N+](=O)[O-])c3)[n+]21.[Cl-] [NSC657598] | -68.44 | – |
| Cc1ccc(S(=O)(=O)N2CCSCCSCCSCCSCC2)cc1 [NSC650792] | -46.61 | – |
| O=C(NCCCCCCCCNC(=O)c1cccc2ccccc12)c1cccc2ccccc12 [NSC629738] | -0.22 | – |
| CC(Cc1ccccc1)NC1=NCCO1 (stereo not shown) [NSC664298] | -116.71 | – |
| CCCCCCCCCCCCCCCC[N+](C)(C)Cc1ccc(F)cc1.[Cl-] [NSC693172] | -0.60 | – |
| CC1=C2C(=CC(C)(C)[C@@H]2O)C(=O)[C@](C)(O)C12CC2 [NSC400978] | -79.24 | – |
| O=C(CC1(O)C(=O)Nc2c(Cl)cc(Cl)cc21)c1cccc2ccccc12 (stereo not shown) [NSC635328] | -47.14 | – |
| COc1ccc(N=Cc2ccc(N(CCC#N)S(=O)(=O)c3ccccc3)cc2C)cc1 [NSC643599] | -33.57 | – |
| Cc1ccc(CC2(OCCN(C)C)CCC(C(C)(C)C)CC2)cc1.O=C(O)/C=C/C(=O)O (stereo not shown) [NSC670229] | -52.64 | – |
